9 compounds from US20240228489A1, “POSITIVE ALLOSTERIC MODULATORS OF THE MUSCARINIC ACETYLCHOLINE RECEPTOR M1” (Vanderbilt University, priority 2021, published 2024) can be followed below.

The target in assay [1] is T1, human mAChR M1 (Homo sapiens, UniProt P11229).
T1 sequence (P11229 1-460): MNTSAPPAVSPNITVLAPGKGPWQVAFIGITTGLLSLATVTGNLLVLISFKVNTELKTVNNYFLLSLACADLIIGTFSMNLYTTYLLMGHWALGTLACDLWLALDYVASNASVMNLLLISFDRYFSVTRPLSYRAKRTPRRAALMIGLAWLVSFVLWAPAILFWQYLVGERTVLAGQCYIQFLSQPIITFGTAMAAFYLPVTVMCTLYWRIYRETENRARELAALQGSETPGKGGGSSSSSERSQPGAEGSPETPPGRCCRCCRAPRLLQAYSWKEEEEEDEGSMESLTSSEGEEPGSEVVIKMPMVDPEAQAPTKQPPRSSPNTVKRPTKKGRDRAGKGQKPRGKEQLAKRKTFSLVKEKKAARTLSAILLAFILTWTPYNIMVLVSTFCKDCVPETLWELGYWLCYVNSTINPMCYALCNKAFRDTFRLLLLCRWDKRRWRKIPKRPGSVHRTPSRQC
Put plainly: mAChR M1 cell-based functional assay (calcium mobilization), agonist mode: compound alone, Emax relative to acetylcholine maximum. Particulars: for Agonist Activity Human M1 EC50: human mAChR M1; for Emax: relative to the maximum for acetylcholine; call rule not given here. The source says:
(§1) Chinese hamster ovary (CHO-K1) cells stably expressing rat (r)M1 were purchased from the American Type Culture Collection and cultured according to their indicated protocol. CHO cells stably expressing human (h)M2, hM3, and hM5 were described previously (Levey, et al., 1991); hM1 and hM4 cDNAs were purchased from Missouri S&T cDNA Resource; rM4 cDNA was provided by T. I. Bonner (National Institutes of Health, Bethesda, MD). rM2 and rM3 were cloned from a rat brain cDNA library and sequence verified. hM1, rM2, rM3, hM4, and rM4 cDNAs were used to stably transfect CHO-K1 cells purchased from the American Type Culture Collection using Lipofectamine2000. To make stable rM2, hM2, rM3, hM4, and rM4 cell lines for use in calcium mobilization assays, these cells also were stably transfected with a chimeric G-protein (Gqi5) (provided by B. R. Conklin, University of California, San Francisco) using Lipofectamine 2000. rM1, hM1, rM3, hM3, rM5, and hM5 cells were grown in Ham's F-12 medium containing 10% heat-inactivated fetal bovine serum (FBS), 20 mM HEPES, and 50 μg/mL G418 sulfate. rM2-Gqi5, hM2-Gqi5, and hM4-Gqi5 cells were grown in the same medium also containing 500 μg/mL Hygromycin B. Stable rM4-Gqi5 cells were grown in DMEM containing 10% heat-inactivated FBS, 20 mM HEPES, 400 μg/mL G418 sulfate, and 500 μg/mL Hygromycin B.
(§2) For high throughput measurement of agonist-evoked increases in intracellular calcium, CHO-K1 cells stably expressing muscarinic receptors were plated in growth medium lacking G418 and hygromycin at 15,000 cells/20 μL/well in Greiner 384-well black-walled, tissue culture (TC)-treated, clear-bottom plates (VWR). Cells were incubated overnight at 37° C. and 5% C02. The next day, cells were washed using an ELX 405 (BioTek) with four washes (80 μL) of assay buffer then aspirated to 20 μL. Next, 20 μL of 16 μM Fluo-4/acetoxymethyl ester (Invitrogen, Carlsbad, CA) prepared as a 2.3 mM stock in DMSO and mixed in a 1:1 ratio with 10% (w/v) Pluronic F-127 and diluted in assay buffer was added to the wells and the cell plates were incubated for 50 min at 37° C. and 5% C02. Dye was removed by washing with the ELX 405 (four 80 μL washes of assay buffer) then aspirated to 20 μL. Compound master plates were formatted in an 11 point CRC format (1:3 dilutions) in 100% DMSO with a starting concentration of 10 mM using the BRAVO liquid handler (Agilent). Test compound CRCs were then transferred to daughter plates (240 nL) using the Echo acoustic plate reformatter (Labcyte, Sunnyvale, CA) and then diluted into assay buffer (40 μL) to a 2× stock using a Thermo Fisher Combi (Thermo Fisher Scientific, Waltham, MA).
(§3) Calcium flux was measured using the Functional Drug Screening System (FDSS) 6000 (Hamamatsu Corporation, Tokyo, Japan) as an increase in the fluorescent static ratio. Compounds were applied to cells (20 μL, 2×) using the automated system of the FDSS 6000 at 4 s into the 300 s protocol and the data were collected at 1 Hz. At 144 s into the 300 s protocol, 10 μL of an EC20 concentration of the muscarinic receptor agonist acetylcholine was added (5×), followed by the addition of 12 μL of an EC80 concentration of acetylcholine at the 230 s time point (5×). Agonist activity was analyzed as a concentration-dependent increase in calcium mobilization upon compound addition. Emax values for agonist activity are expressed relative to the maximum for acetylcholine. Positive allosteric modulator activity was analyzed as a concentration-dependent increase in the EC20 acetylcholine response. Antagonist activity was analyzed as a concentration-dependent decrease in the EC80 acetylcholine response. Concentration-response curves were generated using a four-parameter logistical equation in XLfit curve fitting software (IDBS, Bridgewater, NJ) for Excel (Microsoft, Redmond, WA) or Prism (GraphPad Software, Inc., San Diego, CA).
A general note: Calcium assays in cells follow changes in intracellular calcium, usually with a dye or a luminescent sensor.

For assay [2], the target named is T1, human mAChR M1. Nature of the assay: mAChR M1 cell-based functional assay (calcium mobilization), PAM mode: increase in the EC20 acetylcholine response.
From the text: as §1, §2
as §3, with “CA). […]” for “CA).”

pEC50: −log10 of the molar value.

For the compound `[2H]C1([2H])c2ncccc2C(=O)N1Cc1ccc(-c2ccc3nn(C)cc3c2)cc1` [Compound 12, 6-(4-(2-methyl-2H-indazol-5-yl)benzyl)-6,7-dihydro-5H-pyrrolo[3,4-b]pyridin-5-one-7,7-d2], at human mAChR M1 [1], the “Agonist Activity Human M1 EC50” value is recorded as “Inactive” and the Emax came to 2%. Also, at human mAChR M1 [2], the pEC50 is 5.91 and the Emax is 62%.

Regarding `[2H]C1([2H])c2ncccc2C(=O)N1Cc1ccc(-c2cnc3nn(C)cc3c2)cc1` [Compound 13, 6-(4-(2-methyl-2H-pyrazolo[3,4-b]pyridin-5-yl)benzyl)-6,7-dihydro-5H-pyrrolo[3,4-b]pyridin-5-one-7,7-d2], at human mAChR M1 [1], the “Agonist Activity Human M1 EC50” value was “Inactive” and the Emax worked out at 3%. On human mAChR M1 [2], the pEC50 is 5.28 and the Emax stood at 75%.

Turning to `[2H]C1([2H])c2ncccc2C(=O)N1Cc1ccc(-c2ccc3cn(C)nc3c2)cc1` [Compound 14, 6-(4-(2-methyl-2H-indazol-6-yl)benzyl)-6,7-dihydro-5H-pyrrolo[3,4-b]pyridin-5-one-7,7-d2], at human mAChR M1 [1], the “Agonist Activity Human M1 EC50” value is listed as “Inactive” and the Emax came out at 2%. Also, at human mAChR M1 [2], the pEC50 was 5.17 and the maximal response (Emax) is 77%.

`[2H]C1([2H])c2ncccc2C(=O)N1Cc1ccc(-c2cc3cn(C)nc3cc2F)cc1` [Compound 15, 6-(4-(6-fluoro-2-methyl-2H-indazol-5-yl)benzyl)-6,7-dihydro-5H-pyrrolo[3,4-b]pyridin-5-one-7,7-d2]: at human mAChR M1 [1], the “Agonist Activity Human M1 EC50” value is “Inactive” and the Emax turned out to be 2%. Moreover, at human mAChR M1 [2], the pEC50 was 5.75 and the Emax is 51%.

Consider `[2H]C1([2H])c2ncccc2C(=O)N1Cc1ccc(-c2cc3cn(C)nc3cc2C)cc1` [Compound 16, 6-(4-(2,6-dimethyl-2H-indazol-5-yl)benzyl)-6,7-dihydro-5H-pyrrolo[3,4-b]pyridin-5-one-7,7-d2], for which, on human mAChR M1 [1], the “Agonist Activity Human M1 EC50” value was “Inactive” and the Emax amounted to 3%. Besides, at human mAChR M1 [2], the pEC50 is less than 5.00 and the Emax was determined as 55%.

Turning to `[2H]C1([2H])c2ncccc2C(=O)N1Cc1ccc(-c2cc(C)c3nn(C)cc3c2)cc1` [Compound 17, 6-(4-(2,7-dimethyl-2H-indazol-5-yl)benzyl)-6,7-dihydro-5H-pyrrolo[3,4-b]pyridin-5-one-7,7-d2], on human mAChR M1 [1], the “Agonist Activity Human M1 EC50” value is on record as “Inactive” and the Emax is 4%. Further, on human mAChR M1 [2], the pEC50 was 6.07 and the Emax is 79%.

As for `[2H]C1([2H])c2ncccc2C(=O)N1Cc1ccc(-c2ccc3cncn3c2)cc1` [Compound 18, 6-(4-(imidazo[1,5-a]pyridin-6-yl)benzyl)-6,7-dihydro-5H-pyrrolo[3,4-b]pyridin-5-one-7,7-d2], on human mAChR M1 [1], the “Agonist Activity Human M1 EC50” value was “Inactive” and the Emax was 2%. In addition, on human mAChR M1 [2], the pEC50 was 5.38 and the Emax worked out at 65%.

Take `[2H]C1([2H])c2ncccc2C(=O)N1Cc1ccc(-c2ccn3ccnc3c2)cc1` [Compound 19, 6-(4-(imidazo[1,2-a]pyridin-7-yl)benzyl)-6,7-dihydro-5H-pyrrolo[3,4-b]pyridin-5-one-7,7-d2]: on human mAChR M1 [1], the “Agonist Activity Human M1 EC50” value is “Inactive” and the Emax was found to be 4%. At human mAChR M1 [2], the pEC50 is less than 5.00 and the Emax came out at 58%.

On to `[2H]C1([2H])c2ncccc2C(=O)N1Cc1ccc(-c2ccc3cn(C)nc3c2)cc1F` [Compound 20, 6-(2-fluoro-4-(2-methyl-2H-indazol-6-yl)benzyl)-6,7-dihydro-5H-pyrrolo[3,4-b]pyridin-5-one-7,7-d2], for which, on human mAChR M1 [1], the “Agonist Activity Human M1 EC50” value is on record as “Inactive” and the Emax was 3%. Further, on human mAChR M1 [2], the pEC50 was 5.40 and the Emax came to 75%.

What is called Emax is the size of the effect at its maximum, as opposed to the concentration needed. As a reminder, the pEC50 is the EC50 on a negative log10 scale, so that one unit is a factor of ten.
